From US11001569B2, “6-membered heteroaromatic substituted cyanoindoline derivatives as NIK inhibitors” (Janssen Pharmaceutica NV, priority 2016, dated 2021) come the findings set out here.

Where two headings read alike, the source gives them in different places.

Data set [1] deals with JJN-3 (NIK translocated) multiple myeloma cells. Briefly: Antiproliferative activity on JJN-3 multiple myeloma cells (CellTiter-Glo). The following applies: JJN-3 (NIK translocated) cells, 96 hr treatment, averaged values, read-out: JJN-3 Proliferation inhibition (IC50 (nM)). It is filed as cell-based, human. The procedure:
(§1) Determination of Antiproliferative Activity on JJN-3 (NIK Translocated) and KMS12-BM (NIK WT) Multiple Myeloma Cells
(§2) All compounds tested were dissolved in DMSO and further dilutions were made in culture medium. Final DMSO concentration was 0.3% (v/v) in cell proliferation assays. Viability was assessed using CellTiter-Glo cell viability assay kit (Promega). […] Cells were routinely kept as suspension cells at 37° C. in a humidified 5% CO2 atmosphere. Cells were passaged at a seeding density of 0.2×10^6/ml twice a week. Cells were seeded in black tissue culture treated 96-well plates (Perkin Elmer). Densities used for plating ranged from 15000 (JJN3) to 20000 (KMS12BM) cells per well in a total volume of 135 μl medium. Drugs and/or solvents were added (15 μl) to a final volume of 150 μl. Following 96 hr of treatment, plates were removed from the incubator and allowed to equilibrate to room temperature for approx 10 min. 75 μl CellTiter-Glo reagent was added to each well that was then covered (Perkin Elmer Topseal) and shaken on plate shaker for 10 min. Luminescence was measured on a HTS Topcount (Perkin Elmer). […] For initial screening purposes, compounds were tested using a 9 point dilution curve (serial 1:3 dilutions). For each experiment, controls (containing no drug) and a blank incubation (containing cells read at the time of compound addition) were run in parallel. The blank value was subtracted from all control and sample values. For each sample, the mean value for cell growth (in relative light units) was expressed as a percentage of the mean value for cell growth of the control.
A general note: In ATP-based viability assays light output follows the ATP content of the culture.

In data set [2] the test system is KMS12-BM (NIK WT) multiple myeloma cells. Briefly: Antiproliferative activity on KMS12-BM multiple myeloma cells (CellTiter-Glo). The conditions noted are these: 96 hr treatment, averaged values, read-out: KMS-12 Proliferation inhibition (IC50 (nM)). It is filed as cell-based, human. The protocol: as §1, §2
Data set [3] addresses recombinant human NF-kappaB-inducing Kinase (NIK/MAP3K14) (Homo sapiens, UniProt Q99558). Kind of data set: Inhibition of auto-phosphorylation of recombinant human NIK/MAP3K14 activity (AlphaScreen). It is filed as biochemical. The following applies: 25 microM ATP, averaged over all measurements on all batches. The procedure:
Pharmacological Part Biological assay A Inhibition of auto-phosphorylation of recombinant human NF-kappaB-inducing Kinase (NIK/MAP3K14) Activity (AlphaScreen®)
NIK/MAP3K14 auto-phosphorylation activity was measured using the AlphaScreen® (αscreen) format (Perkin Elmer). All compounds tested were dissolved in dimethyl sulfoxide (DMSO) and further dilutions were made in assay buffer. Final DMSO concentration was 1% (v/v) in assays. Assay buffer was 50 mM Tris pH 7.5 containing 1 mM EGTA (ethylene glycol tetraacetic acid), 1 mM DTT (dithiothreitol), 0.1 mM Na3VO4, 5 mM MgCl2, 0.01% Tween® 20. Assays were carried out in 384 well Alphaplates (Perkin Elmer). […] Incubations were initiated by addition of GST-tagged NIK/MAP3K14 enzyme, carried out for 1 h at 25° C. and terminated by addition of stop buffer containing anti-phospho-IKK Ser176/180 antibody. Protein A Acceptor and Glutathione-Donor beads were added before reading using an EnVision® Multilabel Plate Reader (Perkin Elmer). Signal obtained in the wells containing blank samples was subtracted from all other wells and IC50's were determined by fitting a sigmoidal curve to % inhibition of control versus Log10 compound concentration.
(In Alpha technology, singlet oxygen from a donor bead excites a nearby acceptor bead.)

The melting point is the temperature, or range, at which the solid turns liquid.

Chain of recombinant human NF-kappaB-inducing Kinase (NIK/MAP3K14) (Q99558 whole entry): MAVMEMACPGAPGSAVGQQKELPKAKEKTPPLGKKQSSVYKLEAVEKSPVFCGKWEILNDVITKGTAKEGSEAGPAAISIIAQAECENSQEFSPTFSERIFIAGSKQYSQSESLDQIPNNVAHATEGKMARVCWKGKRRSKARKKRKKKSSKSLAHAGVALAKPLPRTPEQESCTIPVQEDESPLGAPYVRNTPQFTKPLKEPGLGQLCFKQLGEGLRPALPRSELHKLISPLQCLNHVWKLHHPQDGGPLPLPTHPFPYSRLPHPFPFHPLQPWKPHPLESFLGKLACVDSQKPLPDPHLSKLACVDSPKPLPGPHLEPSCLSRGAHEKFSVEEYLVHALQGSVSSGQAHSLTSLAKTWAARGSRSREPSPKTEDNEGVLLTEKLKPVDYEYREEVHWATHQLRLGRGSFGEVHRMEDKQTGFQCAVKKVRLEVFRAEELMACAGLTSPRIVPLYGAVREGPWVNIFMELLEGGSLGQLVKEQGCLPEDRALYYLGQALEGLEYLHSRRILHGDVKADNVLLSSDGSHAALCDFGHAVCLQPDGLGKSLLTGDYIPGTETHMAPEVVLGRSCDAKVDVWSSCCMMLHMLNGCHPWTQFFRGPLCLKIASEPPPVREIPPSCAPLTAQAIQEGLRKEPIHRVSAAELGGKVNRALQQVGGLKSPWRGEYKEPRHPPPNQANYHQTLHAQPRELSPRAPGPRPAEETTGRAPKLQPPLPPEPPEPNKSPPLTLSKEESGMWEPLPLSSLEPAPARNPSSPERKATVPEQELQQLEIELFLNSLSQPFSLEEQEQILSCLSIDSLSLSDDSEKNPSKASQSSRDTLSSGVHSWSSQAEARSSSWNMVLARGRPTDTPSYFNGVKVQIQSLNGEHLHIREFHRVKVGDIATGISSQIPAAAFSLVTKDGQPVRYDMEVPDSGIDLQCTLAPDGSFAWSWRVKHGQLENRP

`COc1ncccc1Nc1nccc(-c2cc(C#N)c3c(c2)C(C)(COCCN2CCCC2)CN3)n1` (stereo not drawn) [Compound 118] displayed a melting point of 88 °C. Besides, the IC50 in data set [1] (Homo sapiens, JJN-3, 96 h) amounted to 4570 nM. In data set [2] (Homo sapiens, KMS-12-BM, 96 h), the IC50 was 4070 nM. Besides, the IC50 in data set [3] amounted to 64.6 nM.
For the compound `COCCOc1ncc(Cl)cc1Nc1nccc(-c2cc(C#N)c3c(c2)[C@@](C)(CO)CN3)n1` [Compound 39], the melting point came out at 204 °C. Further, in data set [1] (Homo sapiens, JJN-3, 96 h), the IC50 was 324 nM. In addition, the IC50 in data set [2] (Homo sapiens, KMS-12-BM, 96 h) is > 10000 nM. Moreover, the IC50 in data set [3] is 8.5 nM.
For `COc1ncc(F)cc1Nc1nccc(-c2cc(C#N)c3c(c2)[C@@](C)(CO)CN3)n1` [Compound 36], in that order: > 250 °C, 288 nM, > 10000 nM and 3.3 nM.
For `COCCOc1ncccc1Nc1nccc(-c2cc(C#N)c3c(c2)[C@](C)(CO)CN3)n1` [Compound 34], in that order: 152 °C, 2880 nM, > 10000 nM and 38 nM.
As for `Cc1ncc(Nc2nccc(-c3cc(C#N)c4c(c3)[C@@](C)(CO)CN4)n2)c(OCC2CCCO2)n1` (single isomer, unassigned) [Compound 137], the melting point amounted to 200 °C. Further, the IC50 in data set [1] was found to be 525 nM. Also, the IC50 in data set [2] (Homo sapiens, KMS-12-BM, 96 h) is > 10000 nM. Besides, the IC50 in data set [3] worked out at 16.2 nM.
`C[C@]1(CO)CNc2c(C#N)cc(-c3ccnc(Nc4cccnc4O[C@H]4CCCOC4)n3)cc21` [Compound 26]: the melting point came out at 155 °C. The IC50 in data set [1] (Homo sapiens, JJN-3, 96 h) amounted to 794 nM. Moreover, the IC50 in data set [2] (Homo sapiens, KMS-12-BM, 96 h) was > 10000 nM. Further, the IC50 in data set [3] worked out at 4.1 nM.
The matching figures for `C[C@]1(CO)CNc2c(C#N)cc(-c3ccnc(Nc4cccnc4O[C@H]4CCOC4)n3)cc21` [Compound 28]: 194 °C, 813 nM, 3090 nM and 3.2 nM.
For `COc1ncccc1Nc1nccc(-c2cc(C#N)c3c(c2)[C@@](C)(CO)CN3)n1` [Compound 6], in that order: 241 °C, ~245 nM, > 10000 nM and 2.4 nM.
`COc1ccncc1Nc1nccc(-c2cc(C#N)c3c(c2)[C@@](C)(CO)CN3)n1` [Compound 37] showed a melting point of 210 °C. In data set [1] (Homo sapiens, JJN-3, 96 h), the IC50 is 3470 nM. In data set [2] (Homo sapiens, KMS-12-BM, 96 h), the IC50 was > 10000 nM. The IC50 in data set [3] came to 1.8 nM.
Take `COc1ncc(Cl)cc1Nc1nccc(-c2cc(C#N)c3c(c2)[C@](C)(COC(=O)[C@H](C)N)CN3)n1` [Compound 109]: the melting point was 171 °C. The IC50 in data set [1] (Homo sapiens, JJN-3, 96 h) came to 794 nM. The IC50 in data set [2] (Homo sapiens, KMS-12-BM, 96 h) was > 10000 nM. In data set [3], the IC50 was found to be 38 nM.
Compound `C[C@]1(CO)CNc2c(C#N)cc(-c3ccnc(Nc4cccnc4OCC4CC4)n3)cc21` [Compound 45] had a melting point of 138 °C. Also, the IC50 in data set [1] (Homo sapiens, JJN-3, 96 h) amounted to 195 nM. For the same compound, in data set [2] (Homo sapiens, KMS-12-BM, 96 h), the IC50 is > 10000 nM. Moreover, the IC50 in data set [3] amounted to 9.1 nM.
As to `CN1CCC(Oc2ncc(Cl)cc2Nc2nccc(-c3cc(C#N)c4c(c3)C(C)(CO)CN4)n2)CC1` (stereo not drawn) [Compound 15], the IC50 in data set [1] (Homo sapiens, JJN-3, 96 h) was 24 nM; in data set [2] (Homo sapiens, KMS-12-BM, 96 h), > 10000 nM; in data set [3], 2.9 nM.
Take `Cc1ncc(Nc2nccc(-c3cc(C#N)c4c(c3)[C@@](C)(CO)CN4)n2)c(OCC2CCCO2)n1` (single isomer, unassigned) [Compound 138]: the IC50 was 1510 nM in data set [1], > 10000 nM in data set [2] and 29.5 nM in data set [3].
Regarding `Cc1nccnc1Nc1nccc(-c2cc(C#N)c3c(c2)[C@@](C)(CO)CN3)n1` [Compound 163], the IC50 in data set [1] (Homo sapiens, JJN-3, 96 h) is 3160 nM; in data set [2] (Homo sapiens, KMS-12-BM, 96 h), ~5010 nM; in data set [3], 34.7 nM.
With `Cc1cnc(OCC2CCCN2C2CC2)c(Nc2nccc(-c3cc(C#N)c4c(c3)[C@@](C)(CO)CN4)n2)c1` (mixture of isomers) [Compound 175], the IC50 in data set [3] was 19.5 nM.
`COc1nc(C2=CCOCC2)ncc1Nc1nccc(-c2cc(C#N)c3c(c2)[C@@](C)(CO)CN3)n1` [Compound 143]: the IC50 was 347 nM in data set [1] (Homo sapiens, JJN-3, 96 h); > 10000 nM in data set [2] (Homo sapiens, KMS-12-BM, 96 h); 7.8 nM in data set [3].
The matching figures for `COc1ncncc1Nc1nccc(-c2cc(C#N)c3c(c2)C(C)(CO)CN3)n1` (stereo not drawn) [Compound 130]: 468 nM, > 10000 nM and 4.6 nM.
`CC1(CO)CNc2c(C#N)cc(-c3ccnc(Nc4ccc(N5CCNCC5)cn4)n3)cc21` (stereo not drawn) [Compound 32]: the IC50 stood at 89 nM in data set [1] (Homo sapiens, JJN-3, 96 h); 437 nM in data set [2] (Homo sapiens, KMS-12-BM, 96 h); 6.5 nM in data set [3].
The matching figures for `Cc1ncc(Nc2nccc(-c3cc(C#N)c4c(c3)[C@@](C)(CO)CN4)n2)c(OCC(=O)N(C)C)n1` [Compound 144]: > 10000 nM, > 10000 nM and 24 nM.
The matching figures for `COc1nc(C(F)(F)F)ccc1Nc1nccc(-c2cc(C#N)c3c(c2)[C@@](C)(CO)CN3)n1` [Compound 54]: 4070 nM, > 10000 nM and 39.8 nM.
As to `Cc1nc(Nc2nccc(-c3cc(C#N)c4c(c3)[C@@](C)(CO)CN4)n2)cc(N2CCN(CCO)CC2)n1` [Compound 133], the IC50 in data set [1] (Homo sapiens, JJN-3, 96 h) is ~1950 nM; in data set [2] (Homo sapiens, KMS-12-BM, 96 h) it was > 10000 nM; in data set [3], 22.9 nM.
For `COC[C@@]1(C)CNc2c(C#N)cc(-c3ccnc(Nc4cc(Cl)cnc4C)n3)cc21` [Compound 145], the IC50 was determined as 479 nM in data set [1], 4790 nM in data set [2] and 9.5 nM in data set [3].
`COCCOc1ncccc1Nc1nccc(-c2cc(C#N)c3c(c2)[C@@](C)(CO)CN3)n1` [Compound 33]: the IC50 in data set [1] (Homo sapiens, JJN-3, 96 h) is 298 nM; in data set [2] (Homo sapiens, KMS-12-BM, 96 h), > 10000 nM; in data set [3], 4.2 nM.
The matching figures for `COc1nnc(Cl)cc1Nc1nccc(-c2cc(C#N)c3c(c2)C(C)(CO)CN3)n1` (stereo not drawn) [Compound 124]: ~144 nM, > 10000 nM and 3.8 nM.
The matching figures for `Cc1nc(C)c(Cl)c(Nc2nccc(-c3cc(C#N)c4c(c3)[C@@](C)(CO)CN4)n2)n1` [Compound 132]: 3310 nM, > 10000 nM and 12.9 nM.
For the compound `Cc1cc(Nc2nccc(-c3cc(C#N)c4c(c3)[C@@](C)(CO)CN4)n2)c(C)nc1OC1CCN(C2CC2)CC1` [Compound 176], the IC50 in data set [3] is 4.8 nM.
With `C[C@]1(CO)CNc2c(C#N)cc(-c3ccnc(Nc4cc(Cl)cnc4OC4CCOCC4)n3)cc21` [Compound 22], the IC50 is 417 nM in data set [1] (Homo sapiens, JJN-3, 96 h); > 10000 nM in data set [2] (Homo sapiens, KMS-12-BM, 96 h); 10.2 nM in data set [3].
In the case of `COCCOc1nc(P(C)(C)=O)ncc1Nc1nccc(-c2cc(C#N)c3c(c2)[C@@](C)(CO)CN3)n1` [Compound 139], the IC50 in data set [1] (Homo sapiens, JJN-3, 96 h) is ~10000 nM; in data set [2] (Homo sapiens, KMS-12-BM, 96 h), > 10000 nM; in data set [3], 17.8 nM.
For `COCCn1cc(Cl)cc(Nc2nccc(-c3cc(C#N)c4c(c3)[C@@](C)(CO)CN4)n2)c1=O` [Compound 14i], in that order: 24 nM, > 10000 nM and 1.4 nM.
The matching figures for `Cc1nc(Nc2nccc(-c3cc(C#N)c4c(c3)[C@@](C)(CO)CN4)n2)cc(N2CCOCC2)n1` [Compound 134]: > 10000 nM, > 10000 nM and 38.9 nM.
For `Cc1ncc(Nc2nccc(-c3cc(C#N)c4c(c3)[C@@](C)(CO)CN4)n2)c(OCC2(C)COC2)n1` [Compound 142], in that order: 6310 nM, > 10000 nM and 15.1 nM.
As for `Cc1cnc(OCC2(C)COC2)c(Nc2nccc(-c3cc(C#N)c4c(c3)[C@@](C)(CO)CN4)n2)c1` [Compound 147], the melting point is > 260 °C. Moreover, the IC50 in data set [3] stood at 7.9 nM.
